Measurements as given in ChEMBL document CHEMBL6127028, “Design and synthesis of TH19P01-Camptothecin based hybrid peptides inducing effective anticancer responses on sortilin positive cancer cells” (Bioorg Med Chem, 2024).
Values after ≈ are worked out from the molar mass of the structure shown. Active and inactive are the calls of the source. The calls are words filed in the database; no cut-off is given here. Where a SMILES comes first, the peptide text is derived from it. [ ]: non-standard residue; d: D form. The star is where a group is joined. Succinyl(20-O-(20S)-CPT) = CC[C@@]1(OC(=O)CCC(=O)*)C(=O)OCc2c1cc1n(c2=O)Cc2cc3ccccc3nc2-1; Dnp = O=[N+]([O-])c1ccc(*)c([N+](=O)[O-])c1; DEAC = CCN(CC)c1ccc2cc(C(=O)*)c(=O)oc2c1; Nle = CCCC[C@H](N)C(=O)O

What was measured:
MDA-MB-231 [1] = test: Cytostatic activity against human MDA-MB-231 cells overexpressing SORT1 assessed as reduction in cell viability incubated for 72 hrs by MTT assay; format: functional, cell-based; settings: MDA-MB-231, 72 h
4T1 [2] = test: Cytostatic activity against mouse 4T1 cells expressing low SORT1 assessed as reduction in cell viability incubated for 72 hrs by MTT assay; format: functional, cell-based; settings: 4T1, 72 h
[3] = Cytostatic activity against HEK293T cells assessed as reduction in cell viability incubated for 72 hrs by MTT assay; format: toxicity, cell-based, HEK-293T; settings: human
[4] = Cytostatic activity against mouse L929 cells assessed as reduction in cell viability incubated for 72 hrs by MTT assay; format: toxicity, cell-based
MDA-MB-231 [5] = test: Anti-proliferative activity against human MDA-MB-231 cells assessed as inhibition of cell proliferation at 1.5 uM measured for 0 to 72 hrs by time-kill curve analysis; format: functional; settings: time 0-72 hrs
Erythrocyte [6] = test: Induction of hemolysis in mouse erythrocytes at 0.03 to 30 uM incubated for 4 hrs; format: toxicity, cell-based; settings: dose 0.03-30 µM
MDA-MB-231 [7] = test: Anti-migration activity against human MDA-MB-231 cells assessed as cell motility at 1.5 uM incubated for 2 hrs followed by PBS washing and incubation in complete medium for 24 hrs by wound healing assay (reference value: 55.3%); format: functional
4T1 [8] = test: Anti-migration activity against mouse 4T1 cells assessed as cell motility at 1.5 uM incubated for 2 hrs followed by PBS washing and incubation in complete medium for 24 hrs by wound healing assay (reference value: 68.9%); format: functional
[9] = Aqueous solubility of the compound in water by UV/Vis spectrophotometry; format: physicochemical
MDA-MB-231 [10] = test: Cytostatic activity against human MDA-MB-231 cells overexpressing SORT1 assessed as reduction in cell viability incubated for 72 hrs in presence of TH19P01 by MTT assay; format: functional, cell-based; settings: MDA-MB-231, 72 h
4T1 [11] = test: Cytostatic activity against mouse 4T1 cells expressing low SORT1 assessed as reduction in cell viability incubated for 72 hrs in presence of TH19P01 by MTT assay; format: functional, cell-based; settings: 4T1, 72 h
MDA-MB-231 [12] = test: Anti-proliferative activity against human MDA-MB-231 cells assessed as inhibition of cell proliferation at 1XIC50 measured for 0 to 72 hrs by time-kill curve analysis; format: functional, cell-based; settings: time 0-72 hrs
MDA-MB-231 [13] = test: Anti-proliferative activity against human MDA-MB-231 cells assessed as inhibition of cell proliferation at 1XIC50 measured for 0 to 72 hrs in presence of TH19P01 by time-kill curve analysis; format: functional, cell-based; settings: time 0-72 hrs
MDA-MB-231 [14] = test: Anti-proliferative activity against human MDA-MB-231 cells assessed as inhibition of cell proliferation at 1XIC50 measured after 72 hrs by time-kill curve analysis; format: functional
MDA-MB-231 [15] = test: Anti-proliferative activity against human MDA-MB-231 cells assessed as inhibition of cell proliferation at 1XIC50 measured after 72 hrs in presence of TH19P01 by time-kill curve analysis; format: functional
[16] = Drug uptake in human MDA-MB-231 cells assessed as increase in blue fluorescence intensity at 10 uM measured after 2 to 12 hrs in presence of TH19P01 by SYBR Green I staining based live cell imaging analysis; format: ADME; settings: mda-mb-231, 10 µM, time 2-12 hrs
Erythrocyte [17] = test: Induction of hemolysis in mouse erythrocytes at >3 uM incubated for 4 hrs in presence of TH19P01; format: toxicity, cell-based
MDA-MB-231 [18] = test: Anti-migration activity against human MDA-MB-231 cells assessed as cell motility at 1.5 uM incubated for 2 hrs in presence of TH19P01 followed by PBS washing and incubation in complete medium for 24 hrs by wound healing assay (reference value: 55.3%); format: functional
4T1 [19] = test: Anti-migration activity against mouse 4T1 cells at 1.5 uM incubated for 2 hrs in presence of TH19P01 followed by PBS washing and incubation in complete medium for 24 hrs by wound healing assay; format: functional, cell-based
[20] = Aqueous solubility of the compound in water by UV/Vis spectrophotometry relative to free camptothecin; format: physicochemical; settings: buffer
MDA-MB-231 [21] = test: Anti-proliferative activity against human MDA-MB-231 cells assessed as inhibition of cell proliferation at 1XIC50 measured at <36 hrs by time-kill curve analysis; format: functional
MDA-MB-231 [22] = test: Anti-proliferative activity against human MDA-MB-231 cells assessed as inhibition of cell proliferation at 0.5XIC50 to 1XIC50 measured after 36 to 72 hrs by time-kill curve analysis; format: functional, cell-based; settings: time 36-72 hrs
[23] = Drug uptake in human MDA-MB-231 cells assessed as increase in blue fluorescence intensity at 10 uM measured after 2 to 12 hrs by SYBR Green I staining based live cell imaging analysis; format: ADME; settings: mda-mb-231, 10 µM, time 2-12 hrs
[24] = Induction of hemolysis in mouse erythrocytes assessed as hemolysis rate at 30 uM incubated for 4 hrs; format: toxicity, cell-based, Erythrocyte; settings: read-out: Activity
[25] = Induction of hemolysis in mouse erythrocytes assessed as hemolysis rate at 0.3 uM incubated for 4 hrs; format: toxicity, cell-based, Erythrocyte; settings: read-out: Activity
[26] = Drug uptake in human MDA-MB-231 cells assessed as increase in blue fluorescence intensity at 10 uM by SYBR Green I staining based live cell imaging analysis; format: ADME; settings: mda-mb-231, 10 µM, TDE = time-dependent effect, time 2-12 hrs
[27] = Prodrug conversion in 5% human serum assessed as CPT release by measuring increase in fluorescence intensity at 50 uM measured for 6 days by fluorescence spectrophotometric analysis; format: ADME, cell-free; settings: 144 h, time 6 day
[28] = Prodrug conversion in 5% human serum assessed as CPT release by measuring increase in fluorescence intensity at 50 uM measured at 0 hrs by fluorescence spectrophotometric analysis; format: ADME, cell-free
[29] = Prodrug conversion in human MDA-MB-231 cells overexpressing SORT1 assessed as CPT release by measuring increase in fluorescence intensity at 1.5 uM measured for 120 hrs by fluorescence based analysis; format: ADME, cell-based; settings: mda-mb-231, 120 h

SMILES | IC50 (MDA-MB-231 [1]) [nM] | IC50 (4T1 [2]) [nM] | IC50 at 72 h [3] [nM] | IC50 at 72 h [4] [nM] | Activity (Erythrocyte [6]) | Activity (MDA-MB-231 [7]) [%] | Activity (4T1 [8]) [%] | inhibition (INH) (MDA-MB-231 [14]) [%] | further results
CCCC[C@H](NC(=O)[C@H](CC(N)=O)NC(=O)[C@H](CCCNC(=N)N)NC(=O)[C@@H](NC(=O)CNC(=O)[C@H](C)NC(=O)[C@H](CCCCN)NC(=O)[C@H](C)NC(=O)[C@H](CCCNC(=N)N)NC(=O)[C@@H](NC(=O)CNC(C)=O)C(C)C)C(C)C)C(=O)N[C@@H](Cc1ccccc1)C(=O)N[C@@H](CCCCN)C(=O)N[C@@H](CO)C(=O)N[C@@H](CCC(=O)O)C(=O)N[C@@H](CO)C(=O)N[C@@H](Cc1ccc(O)cc1)C(N)=O (Ac-GVRAKAGVRN[Nle]FKSESY-NH2) | > 100000 | > 100000 | > 100000 | > 100000 | Toxic | 46.3 | 67.9 | – | inhibition at 1.5 µM (MDA-MB-231 [5]): < 10%
CC[C@@]1(O)C(=O)OCc2c1cc1n(c2=O)Cc2cc3ccccc3nc2-1 [CAMPTOTHECIN] | 630 | 30 | < 10 | 15700 | Toxic | 44.6 | 69.2 | 52.8 | solubility [9]: 3.6 µM (≈ 1.25 µg/mL); IC50 (MDA-MB-231 [10]): 720 nM; IC50 (4T1 [11]): < 32 nM; Activity (MDA-MB-231 [12]): Active; Activity (MDA-MB-231 [13]): Active; inhibition (INH) (MDA-MB-231 [15]): 50.8%; Drug uptake [16]: Active; Activity (Erythrocyte [17]): Toxic; Activity (MDA-MB-231 [18]): 37.7%; Activity (4T1 [19]): Active
CCCC[C@H](NC(=O)[C@H](CC(N)=O)NC(=O)[C@H](CCCNC(=N)N)NC(=O)[C@@H](NC(=O)CNC(=O)[C@H](C)NC(=O)[C@H](CCCCNC(=O)CCC(=O)O[C@]1(CC)C(=O)OCc2c1cc1n(c2=O)Cc2cc3ccccc3nc2-1)NC(=O)[C@H](C)NC(=O)[C@H](CCCNC(=N)N)NC(=O)[C@@H](NC(=O)CNC(C)=O)C(C)C)C(C)C)C(=O)N[C@@H](Cc1ccccc1)C(=O)N[C@@H](CCCCNC(=O)CCC(=O)O[C@]1(CC)C(=O)OCc2c1cc1n(c2=O)Cc2cc3ccccc3nc2-1)C(=O)N[C@@H](CO)C(=O)N[C@@H](CCC(=O)O)C(=O)N[C@@H](CO)C(=O)N[C@@H](Cc1ccc(O)cc1)C(N)=O (Ac-GVRAK(Succinyl(20-O-(20S)-CPT))AGVRN[Nle]FK(Succinyl(20-O-(20S)-CPT))SESY-NH2) | 1470 | 2050 | 11100 | > 100000 | Toxic | 13.3 | 58.6 | 45.3 | fold change (FC) [20]: 90; inhibition (INH) (MDA-MB-231 [21]): <10%; Activity (MDA-MB-231 [22]): Dose-Dependent Effect; Drug uptake [23]: Active; hemolysis at 4 h, 30 µM [24]: < 5%; hemolysis at 4 h, 0.3 µM [25]: 1.5%
CCCC[C@H](NC(=O)[C@H](CC(N)=O)NC(=O)[C@H](CCCNC(=N)N)NC(=O)[C@@H](NC(=O)CNC(=O)[C@H](C)NC(=O)[C@H](CCCCNC(=O)c1cc2ccc(N(CC)CC)cc2oc1=O)NC(=O)[C@H](C)NC(=O)[C@H](CCCNC(=N)N)NC(=O)[C@@H](NC(=O)CNC(C)=O)C(C)C)C(C)C)C(=O)N[C@@H](Cc1ccccc1)C(=O)N[C@@H](CCCCNC(C)=O)C(=O)N[C@@H](CO)C(=O)N[C@@H](CCC(=O)O)C(=O)N[C@@H](CO)C(=O)N[C@@H](Cc1ccc(O)cc1)C(N)=O (Ac-GVRAK(DEAC)AGVRN[Nle]FK(Ac)SESY-NH2) | > 100000 | – | – | – | – | – | – | – | Drug uptake [26]: Tde
CCCC[C@H](NC(=O)[C@H](CC(N)=O)NC(=O)[C@H](CCCNC(=N)N)NC(=O)[C@@H](NC(=O)CNC(=O)[C@H](C)NC(=O)[C@H](CCCCNC(=O)CCC(=O)O[C@]1(CC)C(=O)OCc2c1cc1n(c2=O)Cc2cc3ccccc3nc2-1)NC(=O)[C@H](CCCCNc1ccc([N+](=O)[O-])cc1[N+](=O)[O-])NC(=O)[C@H](C)NC(=O)[C@H](CCCNC(=N)N)NC(=O)[C@@H](NC(=O)CNC(C)=O)C(C)C)C(C)C)C(=O)N[C@@H](Cc1ccccc1)C(=O)N[C@@H](CCCCNc1ccc([N+](=O)[O-])cc1[N+](=O)[O-])C(=O)N[C@@H](CCCCNC(=O)CCC(=O)O[C@]1(CC)C(=O)OCc2c1cc1n(c2=O)Cc2cc3ccccc3nc2-1)C(=O)N[C@@H](CO)C(=O)N[C@@H](CCC(=O)O)C(=O)N[C@@H](CO)C(=O)N[C@@H](Cc1ccc(O)cc1)C(N)=O (Ac-GVRAK(Dnp)K(Succinyl(20-O-(20S)-CPT))AGVRN[Nle]FK(Dnp)K(Succinyl(20-O-(20S)-CPT))SESY-NH2) | 1520 | – | – | – | – | – | – | – | Drug metabolism [27]: Metabolite_Detected; Drug metabolism [28]: Metabolite_Notdetected; Drug metabolism [29]: Metabolite_Detected
